The test has as its target HIV-1 RT (Human immunodeficiency virus type 1 group M subtype B, UniProt P04585). Put plainly: HIV Reverse Transcriptase Assay (RNA-dependent DNA polymerase activity, 3H-dCTP incorporation). The conditions noted are these: 60 nM HIV-RT, tRNA-Lys3 primer/viral RNA template, 45 minutes, room temperature, 0.7% DMSO. The test is classed as biochemical. The method, then: Utilizing the Reverse Transcriptase (RT) Assay described below, compounds can be tested for their ability to inhibit the RNA-dependent DNA polymerase activity of HIV-1 RT. Compounds described in the Examples which appear below, were so tested.
HIV Reverse Transcriptase Assay:
HIV reverse transcriptase activity is assessed by following the incorporation of ^3 H-dCTP into newly synthesized DNA using the natural tRNA^Lys3 primer annealed to a viral RNA template sequence. Assays are performed in a final volume of 100 μL in 96-well plates. Briefly, assay buffer (50 mM Tris pH 7.5, 50 mM NaCl, 5 mM MgCl2), primer/template (10-60 nM), dNTPs (dATP, dGTP, dTTP; 100 nM each), and ^3 H-dCTP (180 nM) are combined, and the reaction is initiated with 60 nM HIV-RT. After 45 minutes at room temperature, the assay is quenched with 0.1 M EDTA and harvested onto a DEAE filter using a Skatron Harvester with a solution of 5% Na2 HPO4 -2% sodium pyrophosphate. The filter mats are dried and placed into a plastic bag with 10 ml of scintillant, and counted on a Wallac BetaPlate reader. Non-specific activity is determined by adding 0.1 M EDTA at the start of the assay.
To assess the activity of compounds on HIV-RT activity, compounds are added to the assay prior to addition of enzyme. Compounds are dissolved in 14% DMSO (0.7% final), and tested at 32, 10, 3.2, 1.0, 0.32, and 0.10 μM in triplicate. % Inhibition is calculated according to the following equation: […]
In the case of `Cc1ccc2c(c1)sc(=O)n2Cc1ccc(-n2c(C)nc3cnccc32)cc1` [Example 5, 6-Methyl-3-[4-(2-methyl-imidazo[4,5-c]pyridin-1-yl)-benzyl]-3H-benzothiazol-2-one], the inhibition at 10 µM came to 30%. The same measure for `COc1ccc2c(c1)sc(=O)n2Cc1ccc(-n2c(C)nc3cnccc32)cc1` [Example 6, 6-Methoxy-3-[4-(2-methyl-imidazo[4,5-c]pyridin-1-yl)-benzyl]-3H-benzothiazol-2-one]: 22%. The same measure for `CCc1nc2cnccc2n1-c1ccc(Cn2c(=O)sc3ccccc32)cc1` [Example 3, 3-[4-(2-Ethyl-imidazo[4,5-c]pyridin-1-yl)-benzyl]-3H-benzothiazol-2-one]: 72%; for `Cc1nc2cnccc2n1-c1ccc(Cn2c(=O)oc3ccccc32)cc1` [Example 13, 3-[4-(2-Methyl-imidazo[4,5-c]pyridin-1-yl)-benzyl]-3H-benzooxazol-2-one]: 61%.

`Cc1nc2cnccc2n1-c1ccc(Cn2c(=O)sc3cc(F)ccc32)cc1` [Example 2, 6-Fluoro-3-[4-(2-methyl-imidazo[4,5-c]pyridin-1-yl)-benzyl]-3H-benzothiazol-2-one] came in with an inhibition at 10 µM of 76%. Take `Cc1nc2cnccc2n1-c1ccc(Cn2c(=O)sc3ccccc32)cc1` [Example 1, 3-[4-(2-Methyl-imidazo[4,5-c]pyridin-1-yl)-benzyl]-3H-benzothiazol-2-one]: the inhibition at 10 µM worked out at 78%. In the case of `COc1ccc2sc(=O)n(Cc3ccc(-n4c(C)nc5cnccc54)cc3)c2c1` [Example 8, 5-Methoxy-3-[4-(2-methyl-imidazo[4,5-c]pyridin-1-yl)-benzyl]-3H-benzothiazol-2-one], the inhibition at 10 µM was 41%. The same measure for `Cc1nc2ccccc2n1Cc1ccc(-n2c(C)nc3cnccc32)cc1` [Example 16, 2-Methyl-1-[4-(2-methyl-benzoimidazol-1-ylmethyl)-phenyl]1H-imidazo[4,5-c]pyridine]: 20%. Take `Cc1nc2cnccc2n1-c1ccc(Cn2c(=O)sc3cc(Cl)ccc32)cc1` [Example 7, 6-Chloro-3-[4-(2-methyl-imidazo[4,5-c]pyridin-1-yl)-benzyl]-3H-benzothiazol-2-one]: testing at 10 µM gave an inhibition of 45%. Compound `CC(C)c1nc2cnccc2n1-c1ccc(Cn2c(=O)sc3ccccc32)cc1` [Example 4, 3-[4-(2-lsopropyl-imidazo[4,5-c]pyridin-1-yl)-benzyl]-3H-benzothiazol-2-one] registered an inhibition at 10 µM of 23%.

(Values after patent US6242461A, “Use of aryl substituted azabenzimidazoles in the treatment of HIV and AIDS related diseases” (Pfizer Inc., priority 2000, dated 2001).)
